In ChEMBL document CHEMBL5107949, “Design, synthesis, and antibacterial activity of N-(trifluoromethyl)phenyl substituted pyrazole derivatives” (RSC Med Chem, 2021):
≈ marks a conversion by molar mass, not a printed value. Calls of active or inactive are those of the source. No cut-off for these calls is given here.

Key:
[1] = tested on: Enterococcus faecium; assay: Antibacterial activity against Enterococcus faecium clinical isolate 1088925 assessed as inhibition of bacterial growth by CLSI protocol based broth microdilution method; type: functional
[2] = tested on: Staphylococcus aureus; assay: Bactericidal activity against Staphylococcus aureus ATCC 700699 persisters assessed as log reduction in colony forming unit at 16 times MIC after 4 hrs by colony counting method; type: functional
[3] = tested on: Enterococcus faecium; assay: Antibacterial activity against vancomycin resistant Enterococcus faecium ATCC 700221 assessed as inhibition of bacterial growth by CLSI protocol based broth microdilution method; type: functional
[4] = tested on: Staphylococcus aureus; assay: Inhibition of DNA synthesis in Staphylococcus aureus ATCC 29213 at 0.25 times MIC preincubated for 30 mins followed by [3H]-thymidine and measured after 30 mins by [3H]-thymidine incorporation based beta scintillation counter analysis; type: functional; settings: time 60 min; 1 h
[5] = tested on: Staphylococcus aureus; assay: Antibacterial activity against Staphylococcus aureus clinical isolate 1088610 assessed as inhibition of bacterial growth by CLSI protocol based broth microdilution method; type: functional
[6] = tested on: Enterococcus faecalis; assay: Antibacterial activity against Enterococcus faecalis clinical isolate 1088051 assessed as inhibition of bacterial growth by CLSI protocol based broth microdilution method; type: functional
[7] = tested on: Staphylococcus aureus; assay: Antibacterial activity against antibiotic resistant Staphylococcus aureus BAA-2312 assessed as inhibition of bacterial growth by CLSI protocol based broth microdilution method; type: functional
[8] = tested on: Staphylococcus aureus; assay: Bactericidal activity against Staphylococcus aureus ATCC 700699 persisters assessed as log reduction in colony forming unit at 16 times MIC measured for 4 hrs by time kill assay; type: functional
[9] = tested on: Staphylococcus aureus; assay: Bactericidal activity against Staphylococcus aureus ATCC 700699 persisters assessed as log reduction in colony forming unit at 2 to 32 times MIC measured for 4 hrs by time kill assay; type: functional, organism-based; settings: DDE = dose-dependent effect
[10] = tested on: Staphylococcus epidermidis; assay: Antibacterial activity against antibiotic resistant Staphylococcus epidermidis ATCC 700296 assessed as inhibition of bacterial growth by CLSI protocol based broth microdilution method; type: functional
[11] = tested on: Staphylococcus aureus; assay: Antibacterial activity against antibiotic resistant Staphylococcus aureus ATCC 33592 assessed as inhibition of bacterial growth by CLSI protocol based broth microdilution method; type: functional
[12] = tested on: Enterococcus faecalis; assay: Inhibition of biofilm formation in Enterococcus faecalis ATCC 29212 at 12.5 ug/ml incubated for 24 hrs by Calgary biofilm device assay; type: functional; settings: dose 12.5 µg/ml
[13] = tested on: Bacillus subtilis; assay: Antibacterial activity against antibiotic resistant Bacillus subtilis ATCC 6623 assessed as inhibition of bacterial growth by CLSI protocol based broth microdilution method; type: functional
[14] = Cytotoxicity against human HEK293 cells reduction in cell viability incubated for 24 hrs by resazurin cell viability assay; type: toxicity, cell-based
[15] = tested on: Staphylococcus aureus; assay: Antibacterial activity against antibiotic susceptible Staphylococcus aureus ATCC 25923 assessed as inhibition of bacterial growth by CLSI protocol based broth microdilution method; type: functional
[16] = tested on: Staphylococcus aureus; assay: Inhibition of biofilm formation in Staphylococcus aureus ATCC 25923 at 3.125 to 12.5 ug/ml incubated for 24 hrs by Calgary biofilm device assay; type: functional, organism-based; settings: dose 3.125-12.5 µg/ml, DDE = dose-dependent effect

With O=C(O)c1ccc(-c2nn(-c3ccc(C(F)(F)F)cc3)cc2CNc2ccc(Br)c(C(F)(F)F)c2)cc1 the MIC [1] was 8 µg/mL (≈ 13.7 µM), the “log(activity)” value [2] was over 2 and the MIC [3] was 0.78 µg/mL (≈ 1.33 µM). For the same compound, the “inhibition (INH)” value [4] was 44%, the MIC [5] was 4 µg/mL (≈ 6.85 µM) and the MIC [6] was 4 µg/mL (≈ 6.85 µM). The MIC [7] was 1.56 µg/mL (≈ 2.67 µM), the “log(activity)” value [8] was 3 and the Activity [9] was “Dde”. For the same compound, the MIC [10] was 1.56 µg/mL (≈ 2.67 µM), the MIC [11] was 0.78 µg/mL (≈ 1.33 µM) and the inhibition [12] was “Active”. It also gave an MIC [13] of 0.39 µg/mL (≈ 0.667 µM), an IC50 at 24 h [14] of over 12 µg/mL and an MIC [15] of 0.78 µg/mL (≈ 1.33 µM). For the same compound, the inhibition [16] was “Dde”.
